From patent publication US9198420B2, “Rodenticidal norbormide analogues” (priority 2012, dated 2015)
Read-outs that look alike come from different tables or passages of the source.

Tests used:
Sprague Dawley rats [1] = experiment: In vivo lethality, intravenous injection via the tail; design: species or system rat (Sprague Dawley); conditions: 20 mg/Kg, rat
Protocol: (§1) Sprague Dawley rats (150-200 g) were used to appraise the rodenticidal activity of the compounds put forward for in vivo evaluation. Briefly, prior to administration the compounds were dissolved in 0.2 M hydrochloric acid (5% DMSO overall), to the desired dose, and without delay either injected intravenously, via the tail, or orally gavaged. All treated animals were housed in a quiet room and monitored every minute (i.v) or every 15 min (oral) to verify early signs of toxicity.

Sprague Dawley rats [2] = experiment: In vivo lethality, oral gavage; design: species or system rat (Sprague Dawley); conditions: rat
Protocol: as §1

rat caudal artery = experiment: Rat caudal artery ring contractile force (vasoconstrictory activity); design: species or system rat (male Wistar)
In short: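 Endothelium-denuded caudal artery rings from male Wistar rats were held at 2 g resting tension in Tyrode solution (37° C, pH 7.35, 95% O2/CO2) and isometric force was recorded. Compounds were tested at 50 μM, with contraction expressed as percent of the 90 mM KCl response.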

[3] = Simulated gastric fluid (SGF) hydrolytic stability assay; type: physicochemical; conditions: simulated gastric fluid without pepsin, pH 1.2, 37° C., 1 h, n = 3
Protocol: All in vivo candidates were subjected to a 1 h hydrolytic stability appraisal in the presence of SGF, without pepsin (United States Pharmacopoeia 24) [200 μL total volume, sodium chloride solution (0.03 M) acidified to pH 1.2 with concentrated hydrochloric acid, at a final compound concentration of 200 μM, 2.5% DMSO overall, 37° C., n=3], to investigate any potential chemical instabilities that may occur in the acidic environment of the stomach prior to uptake. Analysis was by RP-LCMS at an injection volume of 5 μL.

[4] = Rat serum assay (release of NRB or NRB analogue); type: in vitro ADME; conditions: 80% rat serum, 37° C., 3 h, n = 3
Protocol: The hydrolytic stability of compounds of the invention in rat blood was evaluated using in vitro rat serum obtained from Sigma-Aldrich and stored at −78° C. Similar assay conditions to those reported by Li Di and co-workers (Int. J. Pharm. 2005, 297, 110-119) were followed [200 μL total volume, 80% rat serum (diluting with phosphate buffer (0.1 M, pH 7.4)), at a final compound concentration of 200 μM, 2.5% DMSO overall, 37° C., 3 h, n=3] using an Eppendorf Thermomixer Compact. Reactions were quenched by transferring 150 μL of the incubation mixture to 450 μL of ice-cold acetonitrile, affording a final compound/NRB or NRB analogue concentration of 50 μM. Samples were centrifuged at 14,500×g for 15 min using an Eppendorf Mini Spin Plus centrifuge, at ambient temperature. 400 μL of the supernatant was removed and transferred to clean tubes. Analysis was by RP-LCMS at an injection volume of 20 μL. Each compound and corresponding NRB or NRB analogue were subjected to external calibration curves at 50 μM, 100 μM and 200 μM to allow conversion of absorbance unit area into nmol, from which the percentage of NRB or NRB analogue released from each compound was calculated.

[5] = Table 7, compounds of formula (V)

| Compound | In vivo lethality (i.v.) (Sprague Dawley rats [1]; n = 3, Table 8) | In vivo lethality (oral) (Sprague Dawley rats [2]; 40 mg/Kg, n = 3, Table 8) | Vasoconstriction: maximum contractile effect as a % of 90 mM KCl contraction (rat caudal artery; [5]) | Vasoconstriction: maximum contractile effect as a % of 90 mM KCl contraction (rat caudal artery; n = 3, Table 8) | other results |
| --- | --- | --- | --- | --- | --- |
| O=C1C2C3C=C(C(O)(c4ccccc4)c4ccccn4)C(C3=C(c3ccccc3)c3ccccn3)C2C(=O)N1CCO (stereo not drawn) [Compound 102, N-2′-Hydroxyethyl-5-(α-hydroxy-α-2-pyridylbenzyl)-7-(α-2-pyridylbenzylidene)-5-norbornene-2,3-dicarboximide] | yes^b | yes^c,d | ≧132% | ≧132% | In vivo lethality (oral) (Sprague Dawley rats [2]; 20 mg/Kg, n = 3, Table 8): yes^c,d |
| O=C(C=Cc1ccc(Cl)cc1)OCCN1C(=O)C2C3C=C(C(O)(c4ccccc4)c4ccccn4)C(C3=C(c3ccccc3)c3ccccn3)C2C1=O (stereo not drawn) [Compound 129, N-[2′-(4″-Chlorocinnamoyloxy)ethyl]-5-(α-hydroxy-α-2-pyridylbenzyl)-7-(α-2-pyridylbenzylidene)-5-norbornene-2,3-dicarboximide] |  |  |  |  | In vivo lethality (i.v.) (Sprague Dawley rats [1]; n = 2): yes^f; In vivo lethality (oral) (Sprague Dawley rats [2]; 20 mg/Kg, n = 2): yes^h,i; In vivo lethality (oral) (Sprague Dawley rats [2]; 40 mg/Kg, n = 2): yes^h,i; Emax (rat caudal artery; Table 1, read-out: Vasoconstriction: maximum contractile effect as a % of 90 mM KCl contraction): 0%; Vasoconstriction: maximum contractile effect as a % of 90 mM KCl contraction (rat caudal artery; Table 4, pre-cleavage, n = 3): 0% |
| O=C(O)CN1C(=O)C2C3C=C(C(O)(c4ccccc4)c4ccccn4)C(C3=C(c3ccccc3)c3ccccn3)C2C1=O (stereo not drawn) [Compound 107, N-Carboxymethyl-5-(α-hydroxy-α-2-pyridylbenzyl)-7-(α-2-pyridylbenzylidene)-5-norbornene-2,3-dicarboximide] | yes^b |  |  | ≧132% | Emax (rat caudal artery; Table 7, compounds of formula (V), read-out: Vasoconstriction: maximum contractile effect as a % of 90 mM KCl contraction): ≥ 132% |
| NCCN1C(=O)C2C3C=C(C(O)(c4ccccc4)c4ccccn4)C(C3=C(c3ccccc3)c3ccccn3)C2C1=O (stereo not drawn) [Compound 106, N-2′-Aminoethyl-5-(α-hydroxy-α-2-pyridylbenzyl)-7-(α-2-pyridylbenzylidene)-5-norbornene-2,3-dicarboximide] | yes^b |  | ≧132% | ≧132% |  |
| O=C1C2C3C=C(C(O)(c4ccccc4)c4ccccn4)C(C3=C(c3ccccc3)c3ccccn3)C2C(=O)N1CCCO (stereo not drawn) [Compound 104, N-3′-Hydroxypropyl-5-(α-hydroxy-α-2-pyridylbenzyl)-7-(α-2-pyridylbenzylidene)-5-norbornene-2,3-dicarboximide] | yes^b | yes^c | ≧132% | ≧132% |  |
| O=C(CCC(=O)OCN1C(=O)C2C3C=C(C(O)(c4ccccc4)c4ccccn4)C(C3=C(c3ccccc3)c3ccccn3)C2C1=O)OCN1C(=O)C2C3C=C(C(O)(c4ccccc4)c4ccccn4)C(C3=C(c3ccccc3)c3ccccn3)C2C1=O (stereo not drawn) [Compound 21, 5-(α-Hydroxy-α-2-pyridylbenzyl)-7-(α-2-pyridylbenzylidene)-N-succinoyloxymethyl-5-norbornene-2,3-dicarboximide dimer] |  |  |  |  | % NRB released, Hydrolytic Stability [3]: 0%; % NRB released, Rat Serum [4]: 29.6 ± 5.4%; Vasoconstriction: maximum contractile effect as a % of 90 mM KCl contraction (rat caudal artery; Table 5, compounds of formula (III)): 0%; Vasoconstriction: maximum contractile effect as a % of 90 mM KCl contraction (rat caudal artery; n = 3, pre-cleavage, Table 6): 0% |
